According to ChEMBL document CHEMBL1201862, “PubChem BioAssay data set” (2004):
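Exposure lasted 48 hours, with cells grown in 96-well plates and compounds tested at five concentrations. GI50 = concentration required for 50% inhibition of growth.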 Calls of active or inactive are those of the source. No stated cut-off is given here; in the data, active = GI50 up to about 1.1 µM and inactive = higher.

Tests used:
Assay in all cases: NCI tumour cell line growth inhibition, 48 h
[1] = system: HCT-15
[2] = system: UO-31
[3] = system: OVCAR-3
[4] = system: SK-MEL-5
[5] = system: MOLT-4
[6] = system: SK-OV-3
[7] = system: M19-MEL
[8] = system: HCT-116
[9] = system: NCI-H23
[10] = system: HL-60
[11] = system: RXF 393
[12] = system: SF-295
[13] = system: HT-29
[14] = system: U-251
[15] = system: COLO 205
[16] = system: M14
[17] = system: TK-10
[18] = system: ACHN
[19] = system: BT-549
[20] = system: SR

| SMILES | GI50 [1] [µM] | GI50 [2] | GI50 [3] | GI50 [4] | GI50 [5] | GI50 [6] | GI50 [7] | GI50 [8] | GI50 [9] | GI50 [10] | GI50 [11] | GI50 [12] | GI50 [13] | GI50 [14] | GI50 [15] | GI50 [16] | GI50 [17] | GI50 [18] | GI50 [19] | GI50 [20] |
| --- | --- | --- | --- | --- | --- | --- | --- | --- | --- | --- | --- | --- | --- | --- | --- | --- | --- | --- | --- | --- |
| O=C1C=CC2OC(c3ccccc3)C(O)C2O1 (stereo not given) | 3.42 | 10.2 µM (inactive) | 3.5 µM (inactive) | 7.33 µM (inactive) | 1.43 µM (inactive) | 13.8 µM (inactive) | 12 µM (inactive) | 2.49 µM (inactive) | 3.07 µM (inactive) | 1.4 µM (inactive) | 1.37 µM (inactive) | 7.71 µM (inactive) | 4.53 µM (inactive) | 10.7 µM (inactive) | 2.58 µM (inactive) | – | – | – | – | – |
| CCN(CC)C(=O)C(C)n1cc(C)c(=O)[nH]c1=O (stereo not given) | > 100 | > 100 µM (inactive) | > 100 µM (inactive) | > 100 µM (inactive) | > 100 µM (inactive) | – | > 100 µM (inactive) | > 100 µM (inactive) | > 100 µM (inactive) | > 100 µM (inactive) | > 100 µM (inactive) | > 100 µM (inactive) | > 100 µM (inactive) | > 100 µM (inactive) | > 100 µM (inactive) | > 100 µM (inactive) | > 100 µM (inactive) | > 100 µM (inactive) | – | – |
| CSCSCC(CO)NC(=O)/C=C\c1c(C)[nH]c(=O)[nH]c1=O (stereo not given) | 17.9 | 14.9 µM (inactive) | 1.79 µM (inactive) | 21.5 µM (inactive) | 7.74 µM (inactive) | 11.1 µM (inactive) | 9.75 µM (inactive) | 11.4 µM (inactive) | 17.7 µM (inactive) | 9.51 µM (inactive) | 26.5 µM (inactive) | 76.6 µM (inactive) | 19.3 µM (inactive) | 7.57 µM (inactive) | 8.79 µM (inactive) | – | – | – | – | – |
| CCN(CC)CCNC(=O)c1cccc2cc3ccccc3nc12 | 4.47 | 3.45 µM (inactive) | 11.6 µM (inactive) | 4.52 µM (inactive) | 2.96 µM (inactive) | 8.93 µM (inactive) | 4.89 µM (inactive) | 3.52 µM (inactive) | – | 4.8 µM (inactive) | 3.49 µM (inactive) | 7.23 µM (inactive) | 3.95 µM (inactive) | 5.01 µM (inactive) | 4.44 µM (inactive) | 5.9 µM (inactive) | 4.79 µM (inactive) | 3.45 µM (inactive) | – | – |
| CCOC1CC2OC(=O)C1C=C2C(=O)OC (stereo not given) | 27.7 | 35.7 µM (inactive) | 28.4 µM (inactive) | 36.4 µM (inactive) | 17.4 µM (inactive) | > 100 µM (inactive) | 37.2 µM (inactive) | – | 17.9 µM (inactive) | 19.6 µM (inactive) | – | > 100 µM (inactive) | 37.5 µM (inactive) | 50.1 µM (inactive) | 19.1 µM (inactive) | 18.5 µM (inactive) | 37.8 µM (inactive) | 27.8 µM (inactive) | – | – |
| C[C@@H]1S[C@H](c2ccccc2F)N2Cc3ccccc3N=C12 | 28.5 | 17.1 µM (inactive) | 34.4 µM (inactive) | 17 µM (inactive) | 18.2 µM (inactive) | 25.1 µM (inactive) | – | 17.1 µM (inactive) | 31.3 µM (inactive) | 19.3 µM (inactive) | 27.4 µM (inactive) | 26.2 µM (inactive) | 19.5 µM (inactive) | 27.9 µM (inactive) | 30.8 µM (inactive) | 20.9 µM (inactive) | 36.7 µM (inactive) | 31.4 µM (inactive) | 31.3 µM (inactive) | 15.9 µM (inactive) |
| c1cc2nnc1SCCCSc1ccc(nn1)SCCCSc1ccc(nn1)SCCCS2 | > 100 | > 100 µM (inactive) | > 100 µM (inactive) | > 100 µM (inactive) | > 100 µM (inactive) | > 100 µM (inactive) | – | > 100 µM (inactive) | > 100 µM (inactive) | > 100 µM (inactive) | 56.4 µM (inactive) | > 100 µM (inactive) | > 100 µM (inactive) | 65.2 µM (inactive) | > 100 µM (inactive) | > 100 µM (inactive) | > 100 µM (inactive) | > 100 µM (inactive) | > 100 µM (inactive) | > 100 µM (inactive) |
| Cc1nc(-n2nc(-c3ccccc3)cc2-c2ccccc2)sc1C(=O)/C=C/c1ccccc1 | > 100 | 17.9 µM (inactive) | 81.1 µM (inactive) | 23.5 µM (inactive) | 31.8 µM (inactive) | > 100 µM (inactive) | > 100 µM (inactive) | – | > 100 µM (inactive) | 60.4 µM (inactive) | > 100 µM (inactive) | > 100 µM (inactive) | > 100 µM (inactive) | > 100 µM (inactive) | > 100 µM (inactive) | – | > 100 µM (inactive) | > 100 µM (inactive) | – | – |
| COC(=O)CCC(=O)Nc1cc(C)ccc1C | – | > 100 µM (inactive) | > 100 µM (inactive) | > 100 µM (inactive) | > 100 µM (inactive) | > 100 µM (inactive) | > 100 µM (inactive) | > 100 µM (inactive) | > 100 µM (inactive) | > 100 µM (inactive) | > 100 µM (inactive) | > 100 µM (inactive) | > 100 µM (inactive) | > 100 µM (inactive) | > 100 µM (inactive) | > 100 µM (inactive) | > 100 µM (inactive) | > 100 µM (inactive) | – | – |
| [N-]=[N+]=NC1(c2ccccc2)C(=O)Nc2ccccc2C1=O (stereo not given) | 33.8 | 22.1 µM (inactive) | 35 µM (inactive) | 14.9 µM (inactive) | 21.7 µM (inactive) | 55.6 µM (inactive) | – | 30.3 µM (inactive) | 34.9 µM (inactive) | 34.5 µM (inactive) | 25.5 µM (inactive) | 56.4 µM (inactive) | 31.3 µM (inactive) | 41.2 µM (inactive) | 71.4 µM (inactive) | 20.4 µM (inactive) | 49.5 µM (inactive) | 34.6 µM (inactive) | 13.8 µM (inactive) | 41.2 µM (inactive) |
| CCOC(=O)CNC1=NNS(=O)(=O)c2ccccc21 | > 100 | > 100 µM (inactive) | > 100 µM (inactive) | > 100 µM (inactive) | 54.1 µM (inactive) | > 100 µM (inactive) | – | > 100 µM (inactive) | > 100 µM (inactive) | 66.5 µM (inactive) | > 100 µM (inactive) | > 100 µM (inactive) | > 100 µM (inactive) | > 100 µM (inactive) | > 100 µM (inactive) | > 100 µM (inactive) | > 100 µM (inactive) | > 100 µM (inactive) | > 100 µM (inactive) | 97.1 µM (inactive) |
| NNC(=O)C(=O)N/N=C(\CCCC(=O)Nc1ccc(Cl)cc1)CC(=O)c1ccc(F)cc1 | – | > 100 µM (inactive) | > 100 µM (inactive) | > 100 µM (inactive) | > 100 µM (inactive) | – | 53.3 µM (inactive) | > 100 µM (inactive) | > 100 µM (inactive) | > 100 µM (inactive) | > 100 µM (inactive) | > 100 µM (inactive) | 83.2 µM (inactive) | > 100 µM (inactive) | > 100 µM (inactive) | 51.3 µM (inactive) | > 100 µM (inactive) | 17.8 µM (inactive) | – | – |
